Results on two compounds are retold here after US4451575A, “Activators for Ziegler type polymerization catalysts using bis(trichloromethyl) sulfone” (Uniroyal, Inc., priority 1982, dated 1984).

The nature of one data set: Acute Oral LD50. To be noted: rat, in vivo.
The test system of another data set is eye. Briefly: Eye irritation.
The subject of the next data set is rabbit skin. In words: Primary Skin Irritation.

The term LD50 denotes the dose at which mortality reaches 50%. Higher therefore signals a less toxic substance.

As for `CCCCOC(=O)C1(Cl)OC(Cl)C(Cl)C1Cl` (stereo not drawn) [UKU, Butyl 2,3,4,5-Tetrachloro-2,3,4,5, Tetrahydro-2-Furoate], in the data set “Ames Test (mutagenicity)”, the “Ames Test, mutagenicity” value is “negative”.

`O=C(OCC1(Cl)OC(Cl)C(Cl)C1Cl)C1(Cl)OC(Cl)C(Cl)C1Cl` (stereo not drawn) [ZXU, Tetrachlorotetrahydrofurfuryl Tetrachlorotetrahydrofuroate] registered an LD50 in the data set “Acute Oral LD50” of 1100 ± 150 mg/kg. Also, the “Ames Test, mutagenicity” value in “Ames Test (mutagenicity)” is recorded as “negative”. Besides, the figures for the Eye irritation result in the data set with eye (left in without washout) and in the data set on eye (material washed out 4 seconds after introduction) were “severe irritant” and “Mild irritant”, respectively. For the same compound, the “Primary Skin Irritation” value in the data set with rabbit skin is on record as “Moderate irritant”.
